Reference: patent US20170239239A1, “Method for Inducing a Sustained Immune Response” (Immune Therapeutics Inc., priority 2016, published 2017)
Where two headings read alike, the source gives them in different places.

Assays:
psoriatic arthritis = experiment: Case report, psoriatic arthritis; assay type: in vivo, human
Autoimmune Hepatitis = experiment: Case report, Autoimmune Hepatitis Type 1; assay type: in vivo, human; settings: first two weeks
Hepatitis B = experiment: Case report, Hepatitis B; assay type: in vivo, human
multiple sclerosis = experiment: Case reports, multiple sclerosis
Follicular Lymphoma (FL) = settings: 1 year after last CT/PET imaging; cited from earlier work
Systemic Lupus = experiment: Case reports, systemic lupus; settings: person
fibromyalgia = experiment: Study in ten women with fibromyalgia; assay type: in vivo, human
From the text: Baseline erythrocyte sedimentation rate predicted over 80% of the variance in drug response. […] Which confirms the ability of Immediate release naltrexone to decree pain and inflammation.

prostate cancer = experiment: Case report, stage 3 prostate cancer; assay type: in vivo, human; settings: person; 4.5 mg nightly with Docetaxel
From the text: person was diagnosed with stage 3 prostate cancer which they were originally treated for 5 years before began 3 rounds of Docetaxel (Taxotere®).

[1] = test system: pancreatic cancer cells: MIA-PaCa2, PANC1, and BxPC3; experiment: Continuous 48 h exposure to naltrexone, pancreatic cancer cells
autism [2] = experiment: 10 studies of naltrexone in 155 children with autism; assay type: in vivo, human
From the text: 155 children participated in 10 studies; 27 received placebo.

[3] = test system: primary progressive multiple sclerosis (PPMS); experiment: Six month phase II multicenter pilot trial in primary progressive multiple sclerosis, 40 patients; assay type: in vivo, human
Description: The primary end points were safety and tolerability. Secondary outcomes were efficacy on spasticity, pain, fatigue, depression, and quality of life. Clinical and biochemical evaluations were serially performed. Protein concentration of beta-endorphins (BE) and mRNA levels and allelic variants of the mu-opioid receptor gene (OPRM1) were analyzed.

Rheumatoid Arthritis = experiment: Case reports, Rheumatoid Arthritis; assay type: in vivo, human
Description: A person diagnosed with Rheumatoid Arthritis in 2006 and was being treated with methotrexate and plaquenil but patients continued with pain and fatigue.
person two diagnosed 5 years ago with RA was treated with Methotrexate 25 mg per week and Remicade […] every 6 weeks, the fatigue and pain continued, along with the inflammation and general weakness. Sleep disturbed nightly due to pain in my shoulders and hips. Patient felt their life was not acceptable and none of the immunosuppression drugs were helping. […] Within two weeks patient stopped even ibuprophen. Rheumatoid factor has gone from 127 to 66 in 4 months and has stayed stable. […] Occasionally patient has pain but it is easily controlled with a normal dosage of ibuprophen.
A person, diagnosed with RA in 1999 stayed very active until 2005 on a combination of Methotrexate and Prednisone but was have difficulty maintaining their business due to fatigue and severe joint pain with deformity of their hands and elbows. Patient was told to increase their does and start a second immunomodulating drug. Patient no longer wanted to continue with immunosuppression drug or steroids due to the side effects.

Crohn's disease = experiment: Pilot clinical trial in children with moderate to severe Crohn's disease; assay type: in vivo, human
Description: A pilot clinical trial was conducted in children with moderate to severe Crohn's disease. Fourteen subjects with a mean age of 12.3 years (range, 8 to 17 y) were enrolled. […] Safety and toxicity were monitored by physical examinations and blood chemistries. Clinical activity was assessed by the Pediatric Crohn's Disease Activity Index (PCDAI) and Quality of life was monitored by the Impact III survey.

[4] = test system: patients with hematologic malignancies; settings: cited from earlier work
autism [5] = experiment: Case reports, autism; settings: child
colon cancer = experiment: Case report, stage 4 colon cancer; assay type: in vivo, human
From the text: A person diagnosed with stage 4-colon cancer, 2007 which had spread to their lungs and liver, they removed 40% of their colon and began a round of chemotherapy and three surgeries removed 40% of their colon, half is their right lung and 75% of their liver. During the next 18 months received 47 weeks of chemotherapy (a combination of 4 chemo drugs at once).

[6] = of the 128 that received naltrexone

O=C1CC[C@@]2(O)[C@H]3Cc4ccc(O)c5c4[C@@]2(CCN3CC2CC2)[C@H]1O5 [Immediate release naltrexone, naltrexone]
use of other medication (psoriatic arthritis; person, 4.5 mg at bedtime, within 10 days): able to discontinue all paid medications as well as the Humira | disease course (psoriatic arthritis; six months): the disease has stabilized and the progressive deterioration has stopped | side effects (Autoimmune Hepatitis): vivid dreams and mild indigestion | ALT/AST (Hepatitis B; child, 1 mg): decreased to normal | viral load (Hepatitis B; child, 1 mg, within one month, from 59.2 million): 53,000 | serology (Hepatitis B; within 7 months): Sero-conversion to negative antigens and positive antibodies | viral load (Hepatitis B; within 7 months): 551 | MRI over the last 8 years (multiple sclerosis; person six): no progression of the disease | relapses (multiple sclerosis; person six, 4.5 mg at bedtime since 2002): not had a one relapse | MRI (multiple sclerosis; person, SPMS, 1.5 mg to 3 mg, January of 2011): reduced plaque and lesion size | mobility (multiple sclerosis; person, Secondary Progressive, 1.5 mg to 3 mg): upgraded from wheelchair to cane | time to walking again with a cane (multiple sclerosis; person, wheelchair bound, 3 mg nightly): ≤ 10 days | Exacerbations (multiple sclerosis; person, 1.5 mg increasing to 4.5 mg nightly, with hormones and Cortef): became less frequent and have stopped | disease course (multiple sclerosis; person, 4.5 mg for seven months): the disease has stabilized and the progressive deterioration has stopped | relapses (multiple sclerosis; person, 4.5 mg nightly, update 2010): no relapses | side effects (multiple sclerosis; person, after increase to 4.5 mg): some insomnia | disease symptoms at follow-up (Follicular Lymphoma (FL)): remains asymptomatic | mobility (Systemic Lupus; 3 mg, within three weeks): improved mobility | hospital stays (Systemic Lupus; 4.5 mg, since March of 2013): no hospital stays | ANA (Systemic Lupus; for 7 years): normal | Lupus status (Systemic Lupus; liquid form titrated from 0.1 mg to 1.5 mg): in remission | tolerability (Systemic Lupus; started at 1.5 mg): unable to take it due to insomnia and pruritis | reduction of fibromyalgia symptoms over placebo (fibromyalgia; 4.5 mg, entire cohort): greater than 30% | Side effects (including insomnia and vivid dreams) (fibromyalgia; in vivo): rare | mechanical and heat pain thresholds (fibromyalgia; laboratory visits): improved | blood work (prostate cancer): stayed stable | overall quality of life (prostate cancer): much better | effect on pancreatic cancer cells [1]: no effect | side effects (autism [2]; in vivo): mild | tolerability (autism [2]; in vivo): generally well tolerated | children with statistically significant improvement in irritability and hyperactivity (autism [2]; [6]): 77% | children with statistically significant improvement in irritability and hyperactivity, number (autism [2]; [6]): 98 | pain scores NRS (CRPS; patient, EDS, 3 mg then 4.5 mg per day, from (7-10)/10): 3-5 /10 | post-operative pain NRS (CRPS; patient, 3 weeks after resuming): 4-6 /10 | side effects (CRPS; patient, 18 months): No side effects | fixed dystonia of the leg (CRPS; patient, at cast removal after ankle surgery): remission | effect on the dystonia (CRPS; patient, first months of treatment): no effect | CRPS symptoms (CRPS; patient, maintained for 18 months): resolved completely | side effects (CRPS; person five): No side effects | pain, average on the Numeric Rating Scale (NRS) (CRPS; person five, 4.5 mg per day at night, from 8 to 10 before): 5 to 6 | dystonic spasms (CRPS; person five, within 2 months): discontinued | major adverse events ([3]; 40 patients): two | BE (beta-endorphins) concentration ([3]; during the trial): increased | spasticity ([3]; end of the trial): significant reduction | Neurological disability ([3]; human, in vivo): progressed in only one patient | safety and tolerability ([3]; six months): safe and well tolerated | Fatigue (Rheumatoid Arthritis; person two): gone | Rheumatoid factor (Rheumatoid Arthritis; person two, 4.5 mg at bedtime, from 127 in 4 months): 66 | disease course (Rheumatoid Arthritis; person, 4.5 mg with multi-part protocol, 7 years later): not advanced | use of other medication (Rheumatoid Arthritis; person, titrated to 4.5 mg, March of 2010): Successfully discontinued methotrexate | PCDAI score (Crohn's disease; 0.1 mg/kg orally, 8-week course, pretreatment 34.2±3.3, P=0.005): 21.7±3.9 | Systemic and social quality of life (Impact III) (Crohn's disease; P=0.035): improved | improved with mild disease activity (decrease in PCDAI score by at least 10 points) (Crohn's disease; end of the study): 67% | in remission (score≦10) (Crohn's disease; end of the study): Twenty-five | tolerability (Crohn's disease; oral): well tolerated without any serious adverse events | EORTC QLQ-C30 social functioning vs placebo ([4]; 3 mg capsules daily plus routine treatment, one month follow-up (p<0.05)): better condition | EORTC QLQ-C30 social functioning, role functioning, nausea and vomiting and appetite loss vs placebo ([4]; 3 mg daily, 3-month follow-up (all p-values<0.05)): better | EORTC QLQ-C30 physical, social, role functioning, global quality of life, nausea and vomiting and appetite loss vs placebo ([4]; 3 mg daily, 5-month follow-up): significantly better | blood laboratory tests ([4]; 3 mg daily): no changes | white blood cell, red blood cell and plate count ([4]; 3 mg daily): remained stable | language skills (autism [5]): improved | side effect (autism [5]): a little constipation | illness (autism [5]; continually sick before): has not been sick since starting | hyperactivity (autism [5]; 3 mg): increased for the first three weeks | social behaviors (autism [5]; 3 mg, over the next months): skyrocketed | completion of chemotherapy protocol (colon cancer; person, 4.5 mg nightly with chemotherapy): without any major side effects | scans every six months (colon cancer; until June of 2015): cancer free
